Assay results reported in patent US12479847B2 (DANA-FARBER CANCER INSTITUTE, INC., priority 2019, dated 2025).

Experiments:
Assay in all cases: KINOMEscan (ScanMAX) kinase profiling
Format in all cases: binding
panel of 468 kinases [1] = target: T1, panel of 468 kinases (Homo sapiens, UniProt Q96SB4); details: SRPK1; 1 μM; read-out: % control
T1 construct: purchased KINOMEscan (ScanMAX) service

panel of 468 kinases [2] = target: T2, panel of 468 kinases (Homo sapiens, UniProt P57058); details: HUNK; 1 μM; read-out: % control
T2 construct: purchased KINOMEscan (ScanMAX) service
T2 sequence (P57058 1-714): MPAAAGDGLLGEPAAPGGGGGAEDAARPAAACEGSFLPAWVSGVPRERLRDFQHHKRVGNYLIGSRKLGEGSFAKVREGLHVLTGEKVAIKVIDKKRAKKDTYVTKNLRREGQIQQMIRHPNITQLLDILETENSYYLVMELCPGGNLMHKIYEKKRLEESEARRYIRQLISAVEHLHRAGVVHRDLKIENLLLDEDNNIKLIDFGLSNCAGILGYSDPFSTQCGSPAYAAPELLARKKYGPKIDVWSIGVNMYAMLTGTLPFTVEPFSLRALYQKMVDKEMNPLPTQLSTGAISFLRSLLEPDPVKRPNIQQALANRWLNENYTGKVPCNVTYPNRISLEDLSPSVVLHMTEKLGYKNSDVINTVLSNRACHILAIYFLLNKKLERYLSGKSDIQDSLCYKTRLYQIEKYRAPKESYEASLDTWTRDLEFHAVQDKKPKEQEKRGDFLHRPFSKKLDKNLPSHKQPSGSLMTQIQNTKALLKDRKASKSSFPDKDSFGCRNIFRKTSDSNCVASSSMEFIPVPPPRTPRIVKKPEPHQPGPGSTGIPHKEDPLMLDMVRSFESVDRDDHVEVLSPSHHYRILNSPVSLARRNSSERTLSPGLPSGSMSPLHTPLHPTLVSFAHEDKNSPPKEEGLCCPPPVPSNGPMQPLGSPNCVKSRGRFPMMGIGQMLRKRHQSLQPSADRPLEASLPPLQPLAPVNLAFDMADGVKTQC

panel of 468 kinases [3] = target: T3, panel of 468 kinases (Homo sapiens, UniProt O75385); details: ULK1; 1 μM; read-out: % control
T3 construct: purchased KINOMEscan (ScanMAX) service
T3 sequence (O75385 1-1050): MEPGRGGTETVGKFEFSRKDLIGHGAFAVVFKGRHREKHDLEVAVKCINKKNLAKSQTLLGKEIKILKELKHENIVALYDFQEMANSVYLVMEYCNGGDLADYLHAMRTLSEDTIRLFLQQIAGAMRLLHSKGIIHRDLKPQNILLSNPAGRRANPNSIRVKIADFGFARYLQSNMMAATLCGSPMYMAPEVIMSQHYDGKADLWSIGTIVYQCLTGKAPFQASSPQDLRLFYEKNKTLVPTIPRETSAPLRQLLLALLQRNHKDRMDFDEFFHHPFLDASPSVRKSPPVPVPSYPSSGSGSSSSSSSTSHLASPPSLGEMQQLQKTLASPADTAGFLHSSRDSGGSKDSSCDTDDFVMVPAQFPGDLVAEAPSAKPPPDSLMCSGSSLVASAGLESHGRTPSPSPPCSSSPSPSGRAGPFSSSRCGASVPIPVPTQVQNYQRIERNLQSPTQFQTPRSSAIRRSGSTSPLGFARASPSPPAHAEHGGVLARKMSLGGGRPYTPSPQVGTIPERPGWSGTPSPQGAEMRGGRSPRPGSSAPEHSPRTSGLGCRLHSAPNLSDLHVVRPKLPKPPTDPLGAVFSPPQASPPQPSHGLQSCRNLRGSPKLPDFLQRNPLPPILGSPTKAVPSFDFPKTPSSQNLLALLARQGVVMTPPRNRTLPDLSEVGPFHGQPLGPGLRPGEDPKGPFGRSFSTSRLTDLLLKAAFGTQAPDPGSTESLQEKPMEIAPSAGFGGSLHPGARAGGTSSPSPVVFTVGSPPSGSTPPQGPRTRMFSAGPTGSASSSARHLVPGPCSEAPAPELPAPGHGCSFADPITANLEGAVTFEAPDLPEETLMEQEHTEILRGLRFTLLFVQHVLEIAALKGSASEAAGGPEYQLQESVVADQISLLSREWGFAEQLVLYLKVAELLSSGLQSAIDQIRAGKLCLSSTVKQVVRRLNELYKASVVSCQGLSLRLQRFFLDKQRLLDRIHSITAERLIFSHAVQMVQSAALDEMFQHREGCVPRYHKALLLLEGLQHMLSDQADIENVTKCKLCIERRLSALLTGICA

panel of 468 kinases [4] = target: T4, panel of 468 kinases (Homo sapiens, UniProt Q9NYY3); details: PLK2; 1 μM; read-out: % control
T4 construct: purchased KINOMEscan (ScanMAX) service

panel of 468 kinases [5] = target: T5, panel of 468 kinases (Homo sapiens, UniProt P24723); details: PRKCH; 1 μM; read-out: % control
T5 construct: purchased KINOMEscan (ScanMAX) service

panel of 468 kinases [6] = target: T6, panel of 468 kinases (Homo sapiens, UniProt Q8IW41); details: MAPKAPK5; 1 μM; read-out: % control
T6 construct: purchased KINOMEscan (ScanMAX) service
T6 sequence (Q8IW41 1-473): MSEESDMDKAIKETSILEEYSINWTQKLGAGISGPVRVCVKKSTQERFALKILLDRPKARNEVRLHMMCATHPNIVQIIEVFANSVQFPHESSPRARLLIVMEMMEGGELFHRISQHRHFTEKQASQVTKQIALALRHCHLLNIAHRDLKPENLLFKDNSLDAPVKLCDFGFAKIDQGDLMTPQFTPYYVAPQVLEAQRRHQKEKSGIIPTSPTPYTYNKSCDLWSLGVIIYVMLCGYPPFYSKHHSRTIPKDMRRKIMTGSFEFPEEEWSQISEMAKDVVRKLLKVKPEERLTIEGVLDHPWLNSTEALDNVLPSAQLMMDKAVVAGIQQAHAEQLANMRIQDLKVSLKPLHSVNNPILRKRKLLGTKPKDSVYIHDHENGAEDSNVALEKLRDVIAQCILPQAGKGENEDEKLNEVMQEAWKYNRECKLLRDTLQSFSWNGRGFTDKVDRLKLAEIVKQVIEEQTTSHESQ

T1 sequence (Q96SB4 whole entry): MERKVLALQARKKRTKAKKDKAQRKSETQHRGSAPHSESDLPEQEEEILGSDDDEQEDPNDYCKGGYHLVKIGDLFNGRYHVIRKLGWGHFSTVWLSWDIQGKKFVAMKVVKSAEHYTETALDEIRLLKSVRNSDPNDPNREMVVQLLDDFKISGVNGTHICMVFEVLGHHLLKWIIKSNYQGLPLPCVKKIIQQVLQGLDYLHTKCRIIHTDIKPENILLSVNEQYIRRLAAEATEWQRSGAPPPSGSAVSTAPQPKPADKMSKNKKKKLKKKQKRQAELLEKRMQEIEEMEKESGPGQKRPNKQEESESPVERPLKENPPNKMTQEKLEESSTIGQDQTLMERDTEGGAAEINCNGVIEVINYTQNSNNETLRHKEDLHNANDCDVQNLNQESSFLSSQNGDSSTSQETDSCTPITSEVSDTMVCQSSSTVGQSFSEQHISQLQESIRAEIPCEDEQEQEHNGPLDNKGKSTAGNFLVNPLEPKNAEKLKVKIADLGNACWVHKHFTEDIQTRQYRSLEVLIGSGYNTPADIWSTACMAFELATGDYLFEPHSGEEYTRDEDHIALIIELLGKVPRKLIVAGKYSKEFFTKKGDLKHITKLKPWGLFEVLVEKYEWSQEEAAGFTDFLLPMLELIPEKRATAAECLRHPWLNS
T5 sequence (P24723 whole entry): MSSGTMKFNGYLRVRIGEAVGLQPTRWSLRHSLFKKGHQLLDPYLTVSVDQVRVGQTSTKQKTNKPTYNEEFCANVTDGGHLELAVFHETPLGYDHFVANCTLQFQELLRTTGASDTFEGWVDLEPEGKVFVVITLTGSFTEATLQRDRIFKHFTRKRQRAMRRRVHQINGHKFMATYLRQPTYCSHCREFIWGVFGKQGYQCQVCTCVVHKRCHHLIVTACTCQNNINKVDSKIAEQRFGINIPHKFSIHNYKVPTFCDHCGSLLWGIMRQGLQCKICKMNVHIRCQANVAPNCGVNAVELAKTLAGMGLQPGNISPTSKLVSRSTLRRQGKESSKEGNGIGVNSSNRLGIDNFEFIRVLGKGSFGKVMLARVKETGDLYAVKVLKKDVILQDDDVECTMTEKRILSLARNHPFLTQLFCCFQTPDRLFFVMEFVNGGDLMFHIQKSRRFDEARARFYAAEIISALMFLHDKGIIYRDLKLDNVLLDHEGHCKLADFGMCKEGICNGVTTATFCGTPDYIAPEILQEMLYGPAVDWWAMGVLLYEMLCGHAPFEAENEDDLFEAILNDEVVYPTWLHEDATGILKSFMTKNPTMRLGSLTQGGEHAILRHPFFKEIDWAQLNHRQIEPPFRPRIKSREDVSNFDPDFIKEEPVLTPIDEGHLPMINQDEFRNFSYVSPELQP
T4 sequence (Q9NYY3 whole entry): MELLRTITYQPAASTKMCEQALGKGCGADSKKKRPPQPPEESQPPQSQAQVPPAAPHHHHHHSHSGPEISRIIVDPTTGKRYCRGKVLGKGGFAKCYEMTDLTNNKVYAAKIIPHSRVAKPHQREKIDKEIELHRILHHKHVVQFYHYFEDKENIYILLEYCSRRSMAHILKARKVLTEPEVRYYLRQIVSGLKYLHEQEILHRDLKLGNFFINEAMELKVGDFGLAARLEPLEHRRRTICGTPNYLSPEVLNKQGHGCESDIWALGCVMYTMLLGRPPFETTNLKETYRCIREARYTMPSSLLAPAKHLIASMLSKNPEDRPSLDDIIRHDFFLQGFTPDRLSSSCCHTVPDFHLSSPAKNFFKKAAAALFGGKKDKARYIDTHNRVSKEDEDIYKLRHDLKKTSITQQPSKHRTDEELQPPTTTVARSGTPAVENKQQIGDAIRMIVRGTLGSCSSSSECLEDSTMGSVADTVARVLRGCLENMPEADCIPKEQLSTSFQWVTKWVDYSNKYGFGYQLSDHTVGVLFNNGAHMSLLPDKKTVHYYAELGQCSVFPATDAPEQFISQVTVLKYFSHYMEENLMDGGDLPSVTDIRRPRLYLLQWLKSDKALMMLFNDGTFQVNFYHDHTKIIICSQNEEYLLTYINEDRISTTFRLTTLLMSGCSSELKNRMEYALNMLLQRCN

SMILES	remaining binding at 1 µM (panel of 468 kinases [1])	remaining binding at 1 µM (panel of 468 kinases [2])	remaining binding at 1 µM (panel of 468 kinases [3])	remaining binding at 1 µM (panel of 468 kinases [4])	remaining binding at 1 µM (panel of 468 kinases [5])	remaining binding at 1 µM (panel of 468 kinases [6])
CNc1nc(Nc2ccc(S(=O)(=O)N3CCC(N4CCOCC4)CC3)cc2OC)nc2[nH]cc(Cl)c12 [Compound 12, 5-chloro-N2-(2-methoxy-4-((4-morpholinopiperidin-1-yl)sulfonyl)phenyl)-N4-methyl-7H-pyrrolo[2,3-d]pyrimidine-2,4-diamine]	96%	12%	97%	80%	97%	67%
CNc1nc(Nc2ccc(C(=O)N3CCC(N4CCOCC4)CC3)c3c2OCO3)nc2[nH]cc(Cl)c12 [Compound 75, (7-((5-chloro-4-(methylamino)-7H-pyrrolo[2,3-d]pyrimidin-2-yl)amino)benzo[d][1,3]dioxol-4-yl)(4-morpholinopiperidin-1-yl)methanone]	53%	18%	50%	82%	91%	43%
CNc1nc(Nc2ccc(P3(=O)CCN(C4CCOCC4)CC3)cc2OC)nc2[nH]cc(Cl)c12 [Compound 77, 4-(4-((5-chloro-4-(methylamino)-7H-pyrrolo[2,3-d]pyrimidin-2-yl)amino)-3-methoxyphenyl)-1-(tetrahydro-2H-pyran-4-yl)-1,4-azaphosphinane 4-oxide]	96%	14%	95%	75%	100%	46%
